These results are taken from publication PMC9011347, “Small-Molecule Inhibitors Targeting Lipolysis in Human Adipocytes” (Journal of the American Chemical Society, 2022).

This assay deals with T1, human ATGL (Homo sapiens, UniProt Q96AD5).
T1 construct: host or cells: Expi293 cells, crude lysate
T1 sequence (Q96AD5 1-504): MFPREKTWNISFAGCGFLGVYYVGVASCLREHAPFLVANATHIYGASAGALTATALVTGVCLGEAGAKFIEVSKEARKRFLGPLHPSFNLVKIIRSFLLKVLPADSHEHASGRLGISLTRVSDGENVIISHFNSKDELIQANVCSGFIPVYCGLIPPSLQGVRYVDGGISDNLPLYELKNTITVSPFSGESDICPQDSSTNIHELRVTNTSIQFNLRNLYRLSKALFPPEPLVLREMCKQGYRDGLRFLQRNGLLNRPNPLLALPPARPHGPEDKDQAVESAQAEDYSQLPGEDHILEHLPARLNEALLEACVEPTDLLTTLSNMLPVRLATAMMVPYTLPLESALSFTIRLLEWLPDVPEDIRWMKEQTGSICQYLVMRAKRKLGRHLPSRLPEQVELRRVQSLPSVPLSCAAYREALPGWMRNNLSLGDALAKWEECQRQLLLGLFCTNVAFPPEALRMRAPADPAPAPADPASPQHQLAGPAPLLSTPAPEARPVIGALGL
Briefly: TAG hydrolase assay, lysates of Expi293 cells overexpressing ATGL, purified CGI-58, radiolabeled triolein. The format is biochemical. The note with it: for Ki: NG-497 0.5 μM. An excerpt:
We previously developed Atglistatin (Ai), a selective inhibitor of mouse ATGL,[31],[32] which is ineffective against human ATGL.[17] Ai acts as a competitive inhibitor targeting the minimal active domain of ATGL ranging from aa 1–254.[33] This domain is highly conserved in different mammalian species (∼90% identity, Table 1) and comprises the patatin-like domain, eponymous for all members of the patatin-like phospholipase domain-containing (PNPLA) protein family.[34] We first investigated the species selectivity of Ai by performing TAG hydrolase assays[35] with lysates from Expi293 cells expressing ATGL orthologues of different species. The activity of ATGL is strongly stimulated by the co-activator protein comparative gene identification-58 (CGI-58, also known as α/β hydrolase domain containing 5, ABHD5)[36] and can be suppressed by the inhibitory protein G0/G1 switch 2 (G0S2).[37] We therefore determined ATGL activity in the presence and absence of mouse CGI-58, mouse G0S2, and Ai. As shown in Figure 1a–i, all ATGL orthologues were expressed, enzymatically active, stimulated by mouse CGI-58, and inactivated by mouse G0S2. Ai inhibited mouse (Figure 1a), rat (Figure 1b), goat (Figure 1c), dog (Figure 1e), and marmoset ATGL (Figure 1f), but not pig (Figure 1d), rhesus monkey (Figure 1g), or human ATGL (Figure 1h).
To develop an inhibitor for human ATGL, we screened compounds synthesized in the course of the development of Ai.[31] Screenings were performed in the presence of purified CGI-58 using cell lysates of Expi293 cells overexpressing ATGL as a source of enzymatic activity and radiolabeled triolein as substrate as described above (Figure 1). […] In an iterative optimization process, which encompassed the synthesis and testing of >150 compounds (not shown), we varied the nature of the top aryl ring (Figure 2a). Replacement of the top phenyl group with a pyridine moiety (compound 2) led to a significant improvement in inhibitor efficacy (IC50 = 3 μM), which we interpret as a result from a smaller angle between the 1,3-arrangement of the aryl- and the ester-substituents due to the shorter C–N bond length within the pyridine group. […] The introduction of a methoxy residue at this position finally led to compound NG-497 showing an IC50 value of 1 μM.
Experimental details, materials, and methods
Expression of recombinant ATGL constructs and preparation of cell lysates. Expi293 cells were cultivated in Expi293 Expression Medium (GIBCO, Thermo Fisher Scientific, Waltham, USA) at standard conditions (37°C, 5% CO2, 95% humidified atmosphere, 125 rpm). DNA constructs containing ATGL from different species and chimeric ATGL variants in pcDNA3.1(+)myc-His C Vector were obtained from BioCat GmbH (Heidelberg, Germany). Cells were transfected with ExpiFectamine293 Transfection Kit (GIBCO) in Opti-Mem reduced serum medium (GIBCO) according to the manufacturer’s instructions. After 48 h, cells were harvested by centrifugation and washed three times with PBS. Cells were disrupted in buffer A (0.25 M sucrose, 1 mM EDTA, 1 mM dithiothreitol, 20µg/ml leupeptin, 2 µg/ml antipain, 1 µg/ml pepstatin, pH 7.0) by sonication (Virsonic 475, Virtis, Gardiner, USA). Nuclei and debris were removed by centrifugation at 1,000 g and 4°C for 10 min. Protein concentrations were determined using Bio-Rad protein assay (Bio-Rad 785, Bio-Rad Laboratories, Munich, Germany) using BSA as standard.
Expression and purification of mouse CGI-58. CGI-58 was expressed and purified as described 1. In brief, the coding sequence of mouse Cgi-58 was cloned into pHis-Sumo and co-transformed with the plasmid pTf16 expressing the chaperone Tig into E. coli BL21(DE3). Cells were cultured overnight at 37°C and 180 rpm in the presence of 40 µg/ml kanamycin and 34 µg/ml chloramphenicol. Thereafter, cells were transferred into fresh LB medium, grown until OD600 of 0.6, and expression was induced […]
by the addition of 0.5 mM IPTG. […]

As to `CCOc1ccc(-c2cc(OC)cc(C(=O)OC(C)C)n2)cc1` [NG-497], the “inhibition of ATGL orthologue” value (NG-497 50 μM, human ATGL) was “inactivates”. Under “NG-497 100 μM”, the “inactivation of TAG hydrolase activity of ATGL (PNPLA2)” value is listed as “inactivated”. Where the note is “increase of apparent Km, Vmax not affected”, the “mechanism of inhibition (Lineweaver–Burk analysis)” value was “reversible and competitive inhibition”. Besides, for the setting “inhibition of TAG hydrolase activity of human ATGL, Expi293 lysates, purified CGI-58, radiolabeled triolein”, the IC50 was 1000 nM. Further, the Ki runs as follows: (nonlinear regression (GraphPad Prism), Figure 2c) 490 ± 20 nM; (nonlinear regression, varying substrate concentration) 500 nM.

As usually defined, the IC50 is the concentration that inhibits the measured activity by half. Low values mean greater potency in that assay, high ones weaker potency in that assay. As a reminder, the Ki is a measure of affinity in units of concentration, obtained from inhibition or displacement. A low value points to tighter binding.
